Measurements published in patent publication US6794396B2, “Substituted pyridines useful for inhibiting cholesteryl ester transfer protein activity” (Pharmacia Corporation, priority 1998, dated 2004).
pIC50: −log10 of the molar value.

Legend:
CETP [1] = biological target: T1, CETP (Homo sapiens, UniProt P11597); test: CETP activity in vitro: transfer of [3H]CE from HDL donor to LDL acceptor particles; type: biochemical; conditions: 50% inhibition of [3H]CE transfer from HDL to LDL, 2 hours at 37° C.; read-out: IC50(μm)
T1 construct: made in house; host or cells: CHO cells (serum-free conditioned medium)
T1 sequence (P11597 18-493): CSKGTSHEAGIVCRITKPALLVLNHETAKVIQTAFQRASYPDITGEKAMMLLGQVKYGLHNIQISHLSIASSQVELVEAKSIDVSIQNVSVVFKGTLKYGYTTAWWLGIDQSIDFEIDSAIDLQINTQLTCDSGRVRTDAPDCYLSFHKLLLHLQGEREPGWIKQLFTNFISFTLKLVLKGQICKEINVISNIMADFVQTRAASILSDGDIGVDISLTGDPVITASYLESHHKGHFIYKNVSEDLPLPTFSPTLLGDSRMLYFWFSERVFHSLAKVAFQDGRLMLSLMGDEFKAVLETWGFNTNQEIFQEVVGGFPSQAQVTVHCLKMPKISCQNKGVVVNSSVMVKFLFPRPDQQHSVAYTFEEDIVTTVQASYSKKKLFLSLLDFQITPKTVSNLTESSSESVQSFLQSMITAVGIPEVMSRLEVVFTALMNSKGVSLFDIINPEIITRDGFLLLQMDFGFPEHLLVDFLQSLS
Summary of the method: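 CETP from conditioned medium of CETP-transfected CHO cells incubated with [3H]CE-labelled HDL donor and LDL acceptor, pH 7.4 Tris buffer with NaCl, EDTA and 1% BSA, 2 h at 37 °C. LDL precipitated with dextran sulfate/MgCl2, filtered, and transferred radioactivity counted; IC50 reported.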

[2] = biological target: T2, CETP in human plasma or serum pool (Homo sapiens, UniProt P11597); test: Whole serum CETP activity assay (tritiated cholesterol ester); type: biochemical; conditions: 4 hours at 37° C.
T2 construct: from tissue; host or cells: pooled human EDTA plasma or serum from healthy volunteers
T2 sequence (P11597 18-493): T1 sequence (P11597 18-493)
Method: Blood was obtained from healthy volunteers recruited from the personnel of Monsanto Company, Saint Louis, Mo. Blood was either collected in tubes containing EDTA (EDTA plasma pool) or in tubes without EDTA (spun to form the serum pool). The EDTA human plasma pool or human serum pool, previously stored at −20° C., was thawed at room temperature, and centrifuged for 5 minutes to remove any particulate matter. Tritiated HDL, radiolabeled in the cholesteryl ester moiety ([^3H]CE-HDL) as described by Morton and Zilversmit (J. Biol. Chem., 256, 11992-95 (1981) which is incorporated by reference herein), was added to the plasma or serum to a final concentration of (25 μg/ml cholesterol).
Inhibitor compounds were added to the plasma or serum as follows: Equal volumes of the plasma or serum containing the [^3H]CE-HDL (396 μl) were pipetted into micro tubes (Titertube®, Bio-Rad Laboratories, Hercules, Calif.). Compounds, usually dissolved as 20-50 mM stock solutions in DMSO, were serially diluted in DMSO (or an alternative solvent in some cases, such as dimethylformamide or ethanol). Four μl of each of the serial dilutions of inhibitor compounds or DMSO alone were then added to each of the plasma or serum tubes. The tubes were immediately mixed. Triplicate aliquots (100 μl) from each plasma or serum tube were then transferred to wells of 96-well round-bottomed polystyrene microtiter plates (Corning, Corning, N.Y.). Plates were sealed with plastic film and incubated at 37° C. for 4 hours.
Test wells contained plasma or serum with dilutions of inhibitor compounds. Control wells contained plasma or serum with DMSO alone. Blank wells contained plasma or serum with DMSO alone that were left in the micro tubes at 4° C. for the 4 hour incubation and were added to the microtiter wells at the end of the incubation period. VLDL and LDL were precipitated by the addition of 10 μl of precipitating reagent (1% (w/v) Dextran Sulfate (Dextralip50)/0.5M magnesium chloride, pH 7.4) to all wells. The wells were mixed on a plate mixer and then incubated at ambient temperature for 10 min. The plates were then centrifuged at 1000×g for 30 mins at 10° C. The supernatants (50 μl) from each well were then transferred to Picoplate™ 96 plate wells (Packard, Meriden, Conn.) containing […] Microscint™-40 (Packard, Meriden, Conn.). The plates were heat-sealed (TopSeal™-P, Packard, Meriden, Conn.) according to the manufacturers directions and mixed for 30 min.
Radioactivity was measured on a microplate scintillation counter (TopCount, Packard, Meriden, Conn.). […] The maximum percent transfer (in the control wells) was determined using the following equation: [formula]
The percent of control transfer determined in the wells containing inhibitor compounds was determined as follows: [formula]
IC50 values were then calculated from plots of % control versus concentration of inhibitor compound.

CETP [3] = test: Inhibition of CETP activity in vivo: [3H]CE transfer from HDL to VLDL and LDL after intravenous injection; set-up: species or system golden Syrian hamster; conditions: hamsters, injection into jugular vein, four hours
From the text: Inhibition of CETP by a test compound can be determined by administering the compound to an animal by intravenous injection, determining the rate of transfer of tritium-labeled cholesteryl ester (^3H]CE) from HDL to VLDL and LDL particles, and comparing the rate of transfer with the rate of transfer observed in control animals.
Male golden Syrian hamsters were maintained on a diet of chow containing 0.24% cholesterol for at least two weeks prior to the study. Immediately before the experiment, animals were anesthetized with pentobarbital. Anesthesia was maintained throughout the experiment. Indwelling catheters were inserted into the jugular vein and carotid artery. Test compound, Dimethyl 5,5′-dithiobis[2-difluoromethyl)-4-(2-methylpropyl)-6-(trifluoromethyl)-3-pyridinecarboxylate] (Compound 181), was dissolved as a 80 mM stock solution in vehicle (2% ethanol: 98% PEG 400, Sigma Chemical Company, St. Louis, Mo., USA). At the start of the experiment all animals received 0.2 ml of a solution containing [^3H]-CE-HDL into the jugular vein. [^3H[-CE-HDL is a preparation of human HDL containing tritium-labeled cholesteryl ester, and was prepared according to the method of Glenn et al. (“Quantification of Cholesteryl Ester Transfer Protein (CETP): A) CETP Activity and B) Immunochemical Assay of CETP Protein,” Meth. Enzymol., Glenn and Melton (Meth. Enzymol., 263, 339-351 (1996) which is incorporated herein by reference).
After 2 minutes, the animals received 0.1 ml of the test solution injected into the jugular vein. Control animals received 0.1 ml of the vehicle solution without test compound. After 5 minutes, the first blood samples (0.5 ml) were taken from the carotid artery and collected in standard microtainer tubes containing ethylenediamine tetraacetic acid. Saline (0.5 ml) was injected to flush the catheter and replace blood volume. Subsequent blood samples were taken at two hours and four hours by the same method. Blood samples were mixed well and kept on ice until the completion of the experiment.
Plasma was obtained by centrifugation of the blood samples at 4° C. The plasma (50 μl) was then treated with 5 μl of precipitating reagent (dextran sulfate, 10 g/l; 0.5M magnesium chloride to remove VLDL/LDL. After centrifugation, the resulting supernatant (25 μl) containing the HDL was analyzed for radioactivity using a liquid scintillation counter. The percentage [^3H] CE transferred from HDL to LDL and VLDL (% transfer) was calculated based on the total radioactivity in equivalent serum samples before precipitation. Typically, the amount of transfer from HDL to LDL and VLDL in control animals was 30 to 35% after four hours. The polyethylene glycol vehicle was determined to have no effect on CETP activity in this model.
(Compound 181), and five animals that received vehicle. At two hours, mean values of 13% [^3H]-Ce transfer from HDL to LDL and VLDL were obtained for the control animals, but only 4.7% transfer for the animals receiving Compound 181. […] Student t-tests were performed to determine if the means for control and animals treated with Compound 181 were statistically different.

pIC50 (CETP [1]): 5.06 | IC50 whole serum CETP activity [2]: 17 µM
SMILES: COC(=O)c1c(C(F)F)nc(C(F)(F)F)c(S)c1CC(C)C [Compound 7, Methyl 2-(Difluoromethyl)-5-mercapto-4-(2-methylpropyl)-6-(trifluoromethyl)-3-pyridinecarboxylate]
% Transfer of [3H]-CE from HDL to LDL and VLDL (CETP [3]): 10.6% | % Inhibition of CETP activity (CETP [3]; versus control animals): 50%
